Test results as given in patent US10370412B2, “Beta-hairpin peptidomimetics” (Polyphor AG, priority 2013, dated 2019).
Where a SMILES comes first, the peptide text is derived from it. [ ]: non-standard residue; d: D form. Cha = N[C@@H](CC1CCCCC1)C(=O)O; Chg = N[C@H](C(=O)O)C1CCCCC1; Tle = CC(C)(C)[C@H](N)C(=O)O; dDab = NCC[C@@H](N)C(=O)O; Orn = NCCC[C@H](N)C(=O)O; Dab = NCC[C@H](N)C(=O)O

Test system: human red blood cells (hRBC)
Assay type: cell-based
Settings: red cells of human, 1 h
Protocol: The peptides were tested for their hemolytic activity against human red blood cells (hRBC). Fresh hRBC were washed three times with phosphate buffered saline (PBS) and centrifuged for 10 min at 2000×g. Compounds (100 μg/ml) were incubated with 20% hRBC (v/v) for 1 h at 37° C. and shaking at 300 rpm. The final erythrocyte concentration was approximately 0.9×10^9 cells/ml. A value of 0% and 100% cell lyses, respectively, was determined by incubation of hRBC in the presence of PBS containing 0.001% acetic acid and 2.5% Triton X-100 in H2O, respectively. The samples were centrifuged, the supernatants were 8-fold diluted in PBS buffer and the optical densities (OD) were measured at 540 nm. The 100% lyses value (OD540H2O) gave an OD540 of approximately 0.5-1.0. Percent hemolysis was calculated as follows: (OD540peptide/OD540H2O)×100%.

Row | Structure (SMILES) | Hemolysis at 100 μg/ml [%]
1 | C[C@@H]1NC(=O)[C@H](CC2CCCCC2)NC(=O)[C@H](CCN)NC(=O)[C@H](Cc2c[nH]c3ccccc23)NC(=O)[C@H](CCN)NC(=O)[C@@H](CCN)NC(=O)[C@H](CCCN)NC(=O)[C@H](CCN)NC(=O)[C@H](C(C)(C)C)NC(=O)[C@H](Cc2c[nH]c3ccccc23)NC(=O)[C@H](Cc2c[nH]c3ccccc23)NC(=O)[C@@H]2CCCN2C(=O)[C@H]2CCCN2C(=O)[C@H](CO)NC1=O [compound 12, cyclo(-Trp-Trp-tBuGly-Dab-Orn-^DDab-Dab-Trp-Dab-Cha-Ala-Ser-^DPro-Pro-)] (cyclo(WW[Tle][Dab][Orn][dDab][Dab]W[Dab][Cha]AS[dP]P)) | 3
2 | CC(C)C[C@@H]1NC(=O)[C@H](Cc2c[nH]c3ccccc23)NC(=O)[C@H](Cc2c[nH]c3ccccc23)NC(=O)[C@@H]2CCCN2C(=O)[C@H]2CCCN2C(=O)[C@H](C(C)C)NC(=O)[C@H](C)NC(=O)[C@H](C(C)C)NC(=O)[C@H](CCN)NC(=O)[C@H](Cc2c[nH]c3ccccc23)NC(=O)[C@H](CCN)NC(=O)[C@@H](CCN)NC(=O)[C@H](CCCN)NC(=O)[C@H](CCN)NC1=O [compound 13, cyclo(-Trp-Trp-Leu-Dab-Orn-^DDab-Dab-Trp-Dab-Val-Ala-Val-^DPro-Pro-)] (cyclo(WWL[Dab][Orn][dDab][Dab]W[Dab]VAV[dP]P)) | 2
3 | C[C@@H]1NC(=O)[C@H](C(C)(C)C)NC(=O)[C@H](CCN)NC(=O)[C@H](Cc2c[nH]c3ccccc23)NC(=O)[C@H](CCN)NC(=O)[C@H](CCN)NC(=O)[C@H](CCCN)NC(=O)[C@H](CCN)NC(=O)[C@H](Cc2ccc(O)cc2)NC(=O)[C@H](Cc2c[nH]cn2)NC(=O)[C@H](Cc2c[nH]c3ccccc23)NC(=O)[C@@H]2CCCN2C(=O)[C@H]2CCCN2C(=O)[C@H](CO)NC1=O [compound 18, cyclo(-Trp-His-Tyr-Dab-Orn-Dab-Dab-Trp-Dab-tBuGly-Ala-Ser-^DPro-Pro-)] (cyclo(WHY[Dab][Orn][Dab][Dab]W[Dab][Tle]AS[dP]P)) | 0
4 | C[C@@H]1NC(=O)[C@H](C(C)(C)C)NC(=O)[C@H](CCN)NC(=O)[C@H](Cc2c[nH]c3ccccc23)NC(=O)[C@H](CCN)NC(=O)[C@H](CCN)NC(=O)[C@H](CCCN)NC(=O)[C@H](CCN)NC(=O)[C@H](CC2CCCCC2)NC(=O)[C@H](Cc2c[nH]cn2)NC(=O)[C@H](Cc2c[nH]c3ccccc23)NC(=O)[C@@H]2CCCN2C(=O)[C@H]2CCCN2C(=O)[C@H](CO)NC1=O [compound 19, cyclo(-Trp-His-Cha-Dab-Orn-Dab-Dab-Trp-Dab-tBuGly-Ala-Ser-^DPro-Pro-)] (cyclo(WH[Cha][Dab][Orn][Dab][Dab]W[Dab][Tle]AS[dP]P)) | 0
5 | CC[C@H](C)[C@@H]1NC(=O)[C@@H]2CCCN2C(=O)[C@H]2CCCN2C(=O)[C@H](CO)NC(=O)[C@H](C)NC(=O)[C@H](C(C)(C)C)NC(=O)[C@H](CCN)NC(=O)[C@H](Cc2c[nH]c3ccccc23)NC(=O)[C@H](CCN)NC(=O)[C@@H](CCN)NC(=O)[C@H](CCCN)NC(=O)[C@H](CCN)NC(=O)[C@H](Cc2ccc(O)cc2)NC(=O)[C@H](Cc2c[nH]cn2)NC1=O [compound 20, cyclo(-Ile-His-Tyr-Dab-Orn-^DDab-Dab-Trp-Dab-tBuGly-Ala-Ser-^DPro-Pro-)] (cyclo(IHY[Dab][Orn][dDab][Dab]W[Dab][Tle]AS[dP]P)) | 0
6 | CC[C@H](C)[C@@H]1NC(=O)[C@H](CCN)NC(=O)[C@H](Cc2c[nH]c3ccccc23)NC(=O)[C@H](CCN)NC(=O)[C@@H](CCN)NC(=O)[C@H](CCCN)NC(=O)[C@H](CCN)NC(=O)[C@H](Cc2ccc(O)cc2)NC(=O)[C@H](Cc2c[nH]cn2)NC(=O)[C@H]([C@@H](C)CC)NC(=O)[C@@H]2CCCN2C(=O)[C@H]2CCCN2C(=O)[C@H](CO)NC(=O)[C@H](C)NC1=O [compound 21, cyclo(-Ile-His-Tyr-Dab-Orn-^DDab-Dab-Trp-Dab-Ile-Ala-Ser-^DPro-Pro-)] (cyclo(IHY[Dab][Orn][dDab][Dab]W[Dab]IAS[dP]P)) | 1
7 | CC(C)C[C@@H]1NC(=O)[C@@H]2CCCN2C(=O)[C@H]2CCCN2C(=O)[C@H](CO)NC(=O)[C@H](C)NC(=O)[C@H](C2CCCCC2)NC(=O)[C@H](CCN)NC(=O)[C@H](Cc2c[nH]c3ccccc23)NC(=O)[C@H](CCN)NC(=O)[C@H](CCN)NC(=O)[C@H](CCCN)NC(=O)[C@H](CCN)NC(=O)[C@H](Cc2ccc(O)cc2)NC(=O)[C@H](Cc2c[nH]cn2)NC1=O [compound 22, cyclo(-Leu-His-Tyr-Dab-Orn-Dab-Dab-Trp-Dab-Chg-Ala-Ser-^DPro-Pro-)] (cyclo(LHY[Dab][Orn][Dab][Dab]W[Dab][Chg]AS[dP]P)) | 0
8 | CC(C)C[C@@H]1NC(=O)[C@@H]2CCCN2C(=O)[C@H]2CCCN2C(=O)[C@H](CO)NC(=O)[C@H](C)NC(=O)[C@H](C2CCCCC2)NC(=O)[C@H](CCN)NC(=O)[C@H](Cc2c[nH]c3ccccc23)NC(=O)[C@H](CCN)NC(=O)[C@@H](CCN)NC(=O)[C@H](CCCN)NC(=O)[C@H](CCN)NC(=O)[C@H](Cc2ccc(O)cc2)NC(=O)[C@H](Cc2c[nH]cn2)NC1=O [compound 23, cyclo(-Leu-His-Tyr-Dab-Orn-^DDab-Dab-Trp-Dab-Chg-Ala-Ser-^DPro-Pro-)] (cyclo(LHY[Dab][Orn][dDab][Dab]W[Dab][Chg]AS[dP]P)) | 3
9 | CC(C)C[C@@H]1NC(=O)[C@@H]2CCCN2C(=O)[C@H]2CCCN2C(=O)[C@H](CO)NC(=O)[C@H](C)NC(=O)[C@H](C(C)(C)C)NC(=O)[C@H](CCN)NC(=O)[C@H](Cc2c[nH]c3ccccc23)NC(=O)[C@H](CCN)NC(=O)[C@@H](CCN)NC(=O)[C@H](CCCN)NC(=O)[C@H](CCN)NC(=O)[C@H](Cc2c[nH]c3ccccc23)NC(=O)[C@H](Cc2c[nH]cn2)NC1=O [compound 24, cyclo(-Leu-His-Trp-Dab-Orn-^DDab-Dab-Trp-Dab-tBuGly-Ala-Ser-^DPro-Pro-)] (cyclo(LHW[Dab][Orn][dDab][Dab]W[Dab][Tle]AS[dP]P)) | 1
10 | CC(C)C[C@@H]1NC(=O)[C@@H]2CCCN2C(=O)[C@H]2CCCN2C(=O)[C@H](CO)NC(=O)[C@H](C)NC(=O)[C@H](C(C)(C)C)NC(=O)[C@H](CCN)NC(=O)[C@H](Cc2c[nH]c3ccccc23)NC(=O)[C@H](CCN)NC(=O)[C@@H](CCN)NC(=O)[C@H](CCCCN)NC(=O)[C@H](CCN)NC(=O)[C@H](Cc2ccc(O)cc2)NC(=O)[C@H](Cc2c[nH]cn2)NC1=O [compound 25, cyclo(-Leu-His-Tyr-Dab-Lys-^DDab-Dab-Trp-Dab-tBuGly-Ala-Ser-^DPro-Pro-)] (cyclo(LHY[Dab]K[dDab][Dab]W[Dab][Tle]AS[dP]P)) | 0
11 | CC(C)C[C@@H]1NC(=O)[C@@H]2CCCN2C(=O)[C@H]2CCCN2C(=O)[C@H](CO)NC(=O)[C@H](C)NC(=O)[C@H](CC2CCCCC2)NC(=O)[C@H](CCN)NC(=O)[C@H](Cc2c[nH]c3ccccc23)NC(=O)[C@H](CCN)NC(=O)[C@@H](CCN)NC(=O)[C@H](CCCN)NC(=O)[C@H](CCN)NC(=O)[C@H](Cc2ccc(O)cc2)NC(=O)[C@H](Cc2c[nH]c3ccccc23)NC1=O [compound 26, cyclo(-Leu-Trp-Tyr-Dab-Orn-^DDab-Dab-Trp-Dab-Cha-Ala-Ser-^DPro-Pro-)] (cyclo(LWY[Dab][Orn][dDab][Dab]W[Dab][Cha]AS[dP]P)) | 1
12 | CC(C)C[C@@H]1NC(=O)[C@@H]2CCCN2C(=O)[C@H]2CCCN2C(=O)[C@H](CO)NC(=O)[C@H](C)NC(=O)[C@H](C(C)(C)C)NC(=O)[C@H](CCN)NC(=O)[C@H](Cc2c[nH]c3ccccc23)NC(=O)[C@H](CCN)NC(=O)[C@@H](CCN)NC(=O)[C@H](CCCN)NC(=O)[C@H](CCN)NC(=O)[C@H](Cc2c[nH]c3ccccc23)NC(=O)[C@H](Cc2c[nH]c3ccccc23)NC1=O [compound 27, cyclo(-Leu-Trp-Trp-Dab-Orn-^DDab-Dab-Trp-Dab-tBuGly-Ala-Ser-^DPro-Pro-)] (cyclo(LWW[Dab][Orn][dDab][Dab]W[Dab][Tle]AS[dP]P)) | 0
13 | CC(C)C[C@@H]1NC(=O)[C@@H]2CCCN2C(=O)[C@H]2CCCN2C(=O)[C@H](CO)NC(=O)[C@H](C)NC(=O)[C@H](C(C)(C)C)NC(=O)[C@H](CCN)NC(=O)[C@H](Cc2c[nH]c3ccccc23)NC(=O)[C@H](CCN)NC(=O)[C@@H](CCN)NC(=O)[C@H](CCCN)NC(=O)[C@H](CCN)NC(=O)[C@H](Cc2ccc(O)cc2)NC(=O)[C@H](Cc2c[nH]c3ccccc23)NC1=O [compound 28, cyclo(-Leu-Trp-Tyr-Dab-Orn-^DDab-Dab-Trp-Dab-tBuGly-Ala-Ser-^DPro-Pro-)] (cyclo(LWY[Dab][Orn][dDab][Dab]W[Dab][Tle]AS[dP]P)) | 1
14 | CC(C)C[C@@H]1NC(=O)[C@@H]2CCCN2C(=O)[C@H]2CCCN2C(=O)[C@H](CO)NC(=O)[C@H](C)NC(=O)[C@H](Cc2c[nH]c3ccccc23)NC(=O)[C@H](CCN)NC(=O)[C@H](Cc2c[nH]c3ccccc23)NC(=O)[C@H](CCN)NC(=O)[C@@H](CCN)NC(=O)[C@H](CCCN)NC(=O)[C@H](CCN)NC(=O)[C@H](Cc2ccc(O)cc2)NC(=O)[C@H](Cc2c[nH]cn2)NC1=O [compound 29, cyclo(-Leu-His-Tyr-Dab-Orn-^DDab-Dab-Trp-Dab-Trp-Ala-Ser-^DPro-Pro-)] (cyclo(LHY[Dab][Orn][dDab][Dab]W[Dab]WAS[dP]P)) | 0
15 | CC(C)C[C@@H]1NC(=O)[C@@H]2CCCN2C(=O)[C@H]2CCCN2C(=O)[C@H](CO)NC(=O)[C@H](CO)NC(=O)[C@H](C(C)(C)C)NC(=O)[C@H](CCN)NC(=O)[C@H](Cc2c[nH]c3ccccc23)NC(=O)[C@H](CCN)NC(=O)[C@@H](CCN)NC(=O)[C@H](CCCN)NC(=O)[C@H](CCN)NC(=O)[C@H](Cc2ccc(O)cc2)NC(=O)[C@H](Cc2c[nH]cn2)NC1=O [compound 30, cyclo(-Leu-His-Tyr-Dab-Orn-^DDab-Dab-Trp-Dab-tBuGly-Ser-Ser-^DPro-Pro-)] (cyclo(LHY[Dab][Orn][dDab][Dab]W[Dab][Tle]SS[dP]P)) | 1
